Source: patent publication US20240182445A1 (ONO PHARMACEUTICAL CO., LTD., priority 2019, published 2024)

Target: T1, human TREK-1 (Homo sapiens, UniProt O95069)
T1 construct: expressed in transfected cells
T1 sequence (O95069 1-426): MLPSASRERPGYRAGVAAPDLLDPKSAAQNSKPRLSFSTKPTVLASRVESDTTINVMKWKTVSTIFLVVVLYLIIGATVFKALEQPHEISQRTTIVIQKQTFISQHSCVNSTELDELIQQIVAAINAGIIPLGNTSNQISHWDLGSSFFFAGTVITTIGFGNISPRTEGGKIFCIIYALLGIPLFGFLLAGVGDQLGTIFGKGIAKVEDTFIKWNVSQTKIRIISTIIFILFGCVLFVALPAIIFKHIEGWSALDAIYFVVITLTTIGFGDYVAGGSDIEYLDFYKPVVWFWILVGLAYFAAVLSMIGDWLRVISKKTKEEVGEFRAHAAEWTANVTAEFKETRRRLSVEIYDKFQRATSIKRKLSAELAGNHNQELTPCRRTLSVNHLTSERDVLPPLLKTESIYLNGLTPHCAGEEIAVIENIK
Assay: TREK-1 Thallium (Tl+) flux assay, Method 1
Type: cell-based
Details: TREK-1 Thallium (Tl+) flux assay
Outline: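 Readout: Thallos fluorescence ratio, taken 25 s post-thallium relative to the pre-thallium baseline average, then converted to % inhibition. Cells were CHO-K1 stably expressing human TREK-1, dye-loaded and exposed to test compound (vehicle 0.3% DMSO) for 10 min prior to thallium stimulation.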

[1] = no *^12 (Method 2) mark on these rows

Structure (SMILES)	IC50 [1] [nM]	IC50 (Method 1) [nM]
CC(=O)N1CC2CC(C1)C2Cn1ncc(Cl)c1C(=O)Nc1ncc(C#Cc2ccccc2)cc1C (centres unmarked) [Compound 370, 1-((3-acetyl-3-azabicyclo[3.1.1]heptan-6-yl)methyl)-4-chloro-N-(3-methyl-5-(phenylethynyl)pyridin-2-yl)-1H-pyrazole-5-carboxamide]	980	
Cc1cc(C#Cc2ccccc2)cnc1NC(=O)c1c(Cl)cnn1CC1CCC(C)(C)O1 (centres unmarked) [Compound 371, 4-chloro-1-((5,5-dimethyltetrahydrofuran-2-yl)methyl)-N-(3-methyl-5-(phenylethynyl)pyridin-2-yl)-1H-pyrazole-5-carboxamide]	1000	
CCN1CC(n2ncc(Cl)c2C(=O)Nc2ncc(C#Cc3ccccc3)cc2F)C1 [Compound 373, 4-chloro-1-(1-ethylazetidin-3-yl)-N-(3-fluoro-5-(phenylethynyl)pyridin-2-yl)-1H-pyrazole-5-carboxamide hydrate]	1100	
Cc1ncc(Cn2ncc(Cl)c2C(=O)Nc2ncc(C#Cc3ccccc3)cc2C)s1 [Compound 374, 4-chloro-N-(3-methyl-5-(phenylethynyl)pyridin-2-yl)-1-((2-methylthiazol-5-yl)methyl)-1H-pyrazole-5-carboxamide]	1130	
CCN1CC(n2ncc(Cl)c2C(=O)Nc2ncc(C#Cc3ccccc3)cc2C)C1 [Compound 377, 4-chloro-1-(1-ethylazetidin-3-yl)-N-(3-methyl-5-(phenylethynyl)pyridin-2-yl)-1H-pyrazole-5-carboxamide]	1710	
CC(=O)N1CCC(n2ncc(Cl)c2C(=O)Nc2cnc(C#Cc3ccccc3)c(F)c2)CC1 [Compound 378, 1-(1-acetylpiperidin-4-yl)-4-chloro-N-(5-fluoro-6-(phenylethynyl)pyridin-3-yl)-1H-pyrazole-5-carboxamide]	5680	
Cc1cc(-c2cnn(-c3ccc(F)cc3)c2)cnc1NC(=O)c1c(Cl)cnn1C[C@@H]1CCOC1 [Compound 379, (S)-4-chloro-N-(5-(1-(4-fluorophenyl)-1H-pyrazol-4-yl)-3-methylpyridin-2-yl)-1-((tetrahydrofuran-3-yl)methyl)-1H-pyrazole-5-carboxamide]	320	
Cc1cc(OCc2ccccc2)ccc1NC(=O)c1c(Cl)cnn1[C@H]1CC[C@@H](NC(=O)CC(C)C)CC1 [Compound 382, N-(4-(benzyloxy)-2-methylphenyl)-4-chloro-1-(cis-4-(3-methylbutanamido)cyclohexyl)-1H-pyrazole-5-carboxamide]	610	
Cc1cc(OCc2ccccc2)ccc1NC(=O)c1c(Cl)cnn1[C@H]1CC[C@@H](NC(=O)C2CC2)CC1 [Compound 385, N-(4-(benzyloxy)-2-methylphenyl)-4-chloro-1-(cis-4-(cyclopropanecarboxamido)cyclohexyl)-1H-pyrazole-5-carboxamide]	830	
CC(=O)N1CCC(n2ncc(Cl)c2C(=O)Nc2ccc(OCc3ccccc3)cc2C)CC1 [Compound 388, 1-(1-acetylpiperidin-4-yl)-N-(4-(benzyloxy)-2-methylphenyl)-4-chloro-1H-pyrazole-5-carboxamide]	1050	
Cc1cc(-c2cnn(-c3ccc(F)cc3)c2)cnc1NC(=O)c1c(Cl)cnn1CC1(C#N)CC1 [Compound 389, 4-chloro-1-((1-cyanocyclopropyl)methyl)-N-(5-(1-(4-fluorophenyl)-1H-pyrazol-4-yl)-3-methylpyridin-2-yl)-1H-pyrazole-5-carboxamide]	1210	
COc1ccc(-c2cnc(NC(=O)c3c(Cl)cnn3C3CCN(C(=O)OC(C)(C)C)CC3)c(C)c2)cc1C(C)C [Compound 390, tert-butyl 4-(4-chloro-5-((5-(3-isopropyl-4-methoxyphenyl)-3-methylpyridin-2-yl)carbamoyl)-1H-pyrazol-1-yl)piperidine-1-carboxylate]	1210	
CC(=O)N1CCC(n2ncc(Cl)c2C(=O)Nc2ncc(OCc3ccccc3)cc2C)CC1 [Compound 393, 1-(1-acetylpiperidin-4-yl)-N-(5-(benzyloxy)-3-methylpyridin-2-yl)-4-chloro-1H-pyrazole-5-carboxamide]		1270

Other lines, results leading:

IC50 [1] [nM]	IC50 (Method 1) [nM]	Structure (SMILES)
920		CC(C)(C)OC(=O)N1CCCC(Cn2ncc(Cl)c2C(=O)Nc2ncc(C#Cc3ccccc3)cc2F)C1 (centres unmarked) [Compound 365, tert-butyl 3-((4-chloro-5-((3-fluoro-5-(phenylethynyl)pyridin-2-yl)carbamoyl)-1H-pyrazol-1-yl)methyl)piperidine-1-carboxylate]
930		O=C(Nc1ncc(C#Cc2ccccc2)cc1F)c1c(Cl)cnn1CC1CCCO1 (centres unmarked) [Compound 366, 4-chloro-N-(3-fluoro-5-(phenylethynyl)pyridin-2-yl)-1-((tetrahydrofuran-2-yl)methyl)-1H-pyrazole-5-carboxamide]
940		Cc1cc(C#Cc2ccc(F)cc2)cnc1NC(=O)c1c(Cl)cnn1CC1CN(C(=O)C2CCC2)CCO1 (centres unmarked) [Compound 367, 4-chloro-1-((4-(cyclobutanecarbonyl)morpholin-2-yl)methyl)-N-(5-((4-fluorophenyl)ethynyl)-3-methylpyridin-2-yl)-1H-pyrazole-5-carboxamide]
940		Cc1cc(C#Cc2ccc(F)cc2)cnc1NC(=O)c1c(Cl)cnn1C[C@H]1CCCN(C(=O)OC(C)(C)C)C1 [Compound 368, tert-butyl (S)-3-((4-chloro-5-((5-((4-fluorophenyl)ethynyl)-3-methylpyridin-2-yl)carbamoyl)-1H-pyrazol-1-yl)methyl)piperidine-1-carboxylate]
950		COCCn1ncc(Cl)c1C(=O)Nc1ncc(C#Cc2ccccc2)cc1C [Compound 369, 4-chloro-1-(2-methoxyethyl)-N-(3-methyl-5-(phenylethynyl)pyridin-2-yl)-1H-pyrazole-5-carboxamide]
1080		Cn1nc(Cl)c(C(=O)Nc2ncc(C#Cc3ccccc3)cc2F)c1-c1ccc2c(cnn2C)c1 [Compound 372, 3-chloro-N-(3-fluoro-5-(phenylethynyl)pyridin-2-yl)-1-methyl-5-(1-methyl-1H-indazol-5-yl)-1H-pyrazole-4-carboxamide]
1150		Cc1cc(C#Cc2ccccc2)cnc1NC(=O)c1c(Cl)ccn1CC1CCOCC1 [Compound 375, 3-chloro-N-(3-methyl-5-(phenylethynyl)pyridin-2-yl)-1-((tetrahydro-2H-pyran-4-yl)methyl)-1H-pyrrole-2-carboxamide]
1540		O=C(Nc1ncc(C#Cc2ccccc2)cc1Cl)c1c(Cl)cnn1[C@@H]1CCOC1 [Compound 376, (R)-4-chloro-N-(3-chloro-5-(phenylethynyl)pyridin-2-yl)-1-(tetrahydrofuran-3-yl)-1H-pyrazole-5-carboxamide]
380		Cc1cc(OCc2ccccc2)ccc1NC(=O)c1c(Cl)cnn1[C@H]1CC[C@@H](NC(=O)C2COCCO2)CC1 (stereo partly drawn) [Compound 380, 1-(cis-4-(1,4-dioxane-2-carboxamido)cyclohexyl)-N-(4-(benzyloxy)-2-methylphenyl)-4-chloro-1H-pyrazole-5-carboxamide]
600		Cc1cc(-c2cnn(-c3ccc(F)cc3)c2)cnc1NC(=O)c1c(Cl)cnn1C1CCOCC1 [Compound 381, 4-chloro-N-(5-(1-(4-fluorophenyl)-1H-pyrazol-4-yl)-3-methylpyridin-2-yl)-1-(tetrahydro-2H-pyran-4-yl)-1H-pyrazole-5-carboxamide]
680		COc1ncc(-c2cnc(NC(=O)c3c(Cl)cnn3C3CCN(C(=O)OC(C)(C)C)CC3)c(C)c2)cc1F [Compound 383, tert-butyl 4-(4-chloro-5-((5′-fluoro-6′-methoxy-5-methyl-[3,3′-bipyridin]-6-yl)carbamoyl)-1H-pyrazol-1-yl)piperidine-1-carboxylate]
740		COc1ccc(-c2cnc(NC(=O)c3c(Cl)cnn3C3CCN(C(=O)OC(C)(C)C)CC3)c(C)c2)cc1OC [Compound 384, tert-butyl 4-(4-chloro-5-((5-(3,4-dimethoxyphenyl)-3-methylpyridin-2-yl)carbamoyl)-1H-pyrazol-1-yl)piperidine-1-carboxylate]
890		COc1c(F)cc(-c2cnc(NC(=O)c3c(Cl)cnn3C3CCN(C(=O)OC(C)(C)C)CC3)c(C)c2)cc1F [Compound 386, tert-butyl 4-(4-chloro-5-((5-(3,5-difluoro-4-methoxyphenyl)-3-methylpyridin-2-yl)carbamoyl)-1H-pyrazol-1-yl)piperidine-1-carboxylate]
900		Cc1cc(-c2cnn(-c3ccc(F)cc3)c2)cnc1NC(=O)c1c(Cl)cnn1C[C@H]1CCOC1 [Compound 387, (R)-4-chloro-N-(5-(1-(4-fluorophenyl)-1H-pyrazol-4-yl)-3-methylpyridin-2-yl)-1-((tetrahydrofuran-3-yl)methyl)-1H-pyrazole-5-carboxamide]
1250		Cc1cc(OCc2ccccc2)ccc1NC(=O)c1c(Cl)cnn1C1CCN(C(=O)C2COCCO2)CC1 (centres unmarked) [Compound 391, 1-(1-(1,4-dioxane-2-carbonyl)piperidin-4-yl)-N-(4-(benzyloxy)-2-methylphenyl)-4-chloro-1H-pyrazole-5-carboxamide]
	1260	CCC(=O)N[C@H]1CC[C@@H](n2ncc(Cl)c2C(=O)Nc2ccc(OCc3ccccc3)cc2C)CC1 [Compound 392, N-(4-(benzyloxy)-2-methylphenyl)-4-chloro-1-(cis-4-propionamidocyclohexyl)-1H-pyrazole-5-carboxamide]
